US10076576B2, “Minimally toxic prodrugs” (priority 2012, dated 2018)
Values joined by “and” are separate entries in the source; they are usually repeats but may differ in a detail not shown here. Equal entries are not always repeated. Where two headings read alike, the source gives them in different places.

Assays:
[1] = system: mouse embryonic fibroblasts (MEF); test: In vitro cytotoxicity on control fibroblasts (neutral red uptake); assay type: cell-based; details: 48 h
Protocol: FIG. 5. In vitro cellular toxicity of PhAc-ALGP-Dox and Doxorubicin on Cor.At® cells (mouse embryonic stem cell derived cardiomyocytes). As non-specific control, the test was also performed on inactivated mouse embryonic fibroblasts (MEF). Cells were cultured for 48 h in the presence of drugs and a neutral red uptake test was performed to determine cell viability. Results represent the cytotoxicity curves. The IC50 values were calculated from the cytotoxicity curves using the Prism GraphPad software 5.0.
The in vitro cardiotoxicity test was carried out in a relevant and predictive in vitro model for cardiac safety screening in early lead optimization using mouse embryonic stem cell derived cardiomyocytes (Cor.At®, Axiogenesis (Germany)). Cor.At® cardiomyocytes provide a standardized, homogenous and reproducible cell system for the in vitro classification of a compound's cardio-cytotoxic potential. After incubation with test compounds, the neutral red uptake test was used to determine effects which directly affect the viability and integrity of cardiac cells when compared to a non-specific reference cell type, e.g. mouse fibroblasts (MEF).

[2] = system: LoVo colon carcinoma human xenografts; test: Efficacy after repeated ip injections (2Q1D5), LoVo xenograft; assay type: in vivo, NMRI nude mice; details: for TGD: 190 to 1,000 mm^3
Protocol: FIG. 9. Efficacy study of PhAc-ALGP-Dox in comparison with free Doxorubicin in NMRI nude mice bearing LoVo colon carcinoma human xenografts. Drugs or controls were administered by the i.p. route twice a day for five consecutive days (arrows). The mice receiving a constant volume (10 μL/g) of either saline (-●-) or of the different dosing solutions: PhAc-ALGP-Dox 25 μmol/kg (*), 35 μmol/kg (◯) and 50 μmol/kg (+); Dox 0.5 μmol/kg (▪), 1 μmol/kg (▴) and 2 μmol/kg (×).
(§1) The efficacy of PhAc-ALGP-Dox was assessed using athymic mice (nude/nude NMRI) carrying ectopic xenograft of human LoVo colon carcinoma or of MX-1 mammary carcinoma in comparison with free Doxorubicin. Tumors were established by a subcutaneous implantation of cells (10^7 cells) in the right flank of 6 weeks old female NMRI nude mice (Harlan). Treatments were administered when the tumors reached a size of 150-200 mm^3 (measured using a caliper and calculated with the following formula: […]). Animals were randomly assigned to groups of 4 to-6 animals. […] Compounds were delivered by bolus intraperitoneal injection (ip) at 10 μl/g. During the course of the experiment, clinical signs, body weight and tumor volume were controlled twice a week. Results are presented as the evolution of mean tumor volume as a function of time. Optimal T/C (ratio of mean tumor volume of treated versus control mice) values and TGD (tumor growth delay in reaching 1000 mm^3) were used as a measure of treatment efficacy. […] A statistical analysis was performed at day 22 using the Mann Whitney t test of the Graph Pad Prism 5.0 software.

[3] = system: LoVo colon carcinoma human xenografts; test: Efficacy, similar study, ip 2Q1D5×2W (Table 9)
Protocol: as §1

[4] = system: MX-1 mammary carcinoma human xenografts; test: Efficacy after repeated ip injections (2Q1D5×2W), MX-1 xenograft; assay type: in vivo, NMRI nude mice; details: for TGI [% (day)]: day 35; for body weight loss (in words): Doxorubicin 1 μmol/kg (MTD), PhAc-ALGP-Dox 50 μmol/kg, ip 2Q1D5×2W
Protocol: FIG. 10. […] Drugs or controls were administered by the i.p. route twice a day for five consecutive days (arrows). Treatment was repeated with 72 hours interval between two cycles.

[5] = system: B16-F10 murine melanoma cells; assay type: in vivo, C57BL6 mice
Protocol: FIG. 11. Evaluation of PhAc-ALGP-Dox efficacy in comparison with Doxorubicin in the B16-F10 lung metastatic melanoma model. Graph on the left side represents quantification of melanin of lung metastasis at day 14 after injection of B16F10 tumor cells. Graph on the right side show the survival curves.
The efficacy of PhAc-ALGP-Dox was tested in the well described B16-F10 lung metastatic melanoma model. For that purpose, […] B16-F10 murine melanoma cells were injected in the lateral vein of C57BL6 mice. Treatments started three days after cells injection. Animal received twice a day (at 5-6 h interval) for 5 consecutive days intraperitoneal injections (total 10 injections/mouse) of saline or of Doxorubicin at 2 and 3.5 μmol/kg or of PhAc-ALGP-Dox at 50 μmol/kg. Five mice per group were sacrificed at day 14 after cells injection. Lungs were collected and processed for melanin quantification (Molecular Pharmacology, 74: 1576-1586, 2008). Survival was determined by observation of the remaining mice.

[6] = system: orthotopic HCT116 human colon tumors; test: Orthotopic HCT116 colon carcinoma tumor model; assay type: in vivo, SCID mice
Protocol: (§2) FIG. 14. Evaluation of the antitumor effect of PhAc-ALGP-dox in SCID mice bearing orthotopic HCT116 human colon tumors. SCID mice were injected orthotopically (in the caecum) with human HCT116 colon tumor cells. One group was treated with saline while groups 2 and 3 received 10 intraperitoneal injections (2Q1D5) of 35 and 50 μmol/kg of PhAc-ALGP-doxorubicin. Primary tumor weights were recorded on day 34 post cell inoculation.
as §2, with “15.” for “14.”, “antimetastatic” for “antitumor”, “effect (in liver)” for “effect”, “Liver metastases” for “Primary tumor weights”
HCT116 cells were subcutaneously injected into SCID mice. Once xenografts were established, they were excised and orthotopically implanted into the ceacum of other female γ-irradiated SCID mice using microsurgical techniques. On day 12 after the cancer cells injection, the mice were randomized in four groups of 16. […] On day 34 after injection into the caecum of colonic cancer cells the animals were sacrificed, the number of metastases was counted macroscopically and the primary tumors weighted.

In the case of COc1cccc2c1C(=O)c1c(O)c3c(c(O)c1C2=O)C[C@@](O)(C(=O)CO)C[C@@H]3O[C@H]1C[C@H](N)[C@H](O)[C@H](C)O1 [Doxorubicin, reference compound], the “viability of MEF” value ([1]; 0.2 μg/ml) is reported as 89%, the “toxic effect on MEF (in words)” value ([1]; 20 μg/ml and 2 μg/ml) is reported as “severe toxic effect” and the “TGD” value ([2]; 0.5 μmol/kg ip 2Q1D5) is reported as 1 days. For the same molecule, the “TGI [% (day)]” value ([2]; 1 μmol/kg ip 2Q1D5) was “no antitumor activity and no”, the “TGD” value ([2]; 1 μmol/kg ip 2Q1D5) was 0 days and the “TGD” value ([2]; 2 μmol/kg ip 2Q1D5) was 6 days. For the same molecule, the “TGI [% (day)]” value ([2]; 2 μmol/kg ip 2Q1D5, day 22, listed as Dox) was 45%, the “TGD” value ([3]; 1 μmol/kg ip 2Q1D5×2W) was 5 days and the mortality ([3]; 1 μmol/kg ip 2Q1D5×2W) was “one dead mouse was found at day 29”. The “TGI [% (day)]” value ([3]; 1 μmol/kg ip 2Q1D5×2W, day 29) was 44(29), %, the “TGD” value ([3]; 1.5 μmol/kg ip 2Q1D5×2W) was 9 days and the “TGI [% (day)]” value ([3]; 1.5 μmol/kg ip 2Q1D5×2W, day 29, n = 1) was 65(29), %. For the same molecule, the “TGI [% (day)]” value ([4]; 1 μmol/kg ip 2Q1D5×2W) was 44% and 44 (35), n = 3%, the “toxicity (in words)” value ([4]; 1.5 μmol/Kg ip 2Q1D5×2W) was “very toxic” and the “body weight loss (in words)” value [4] was “No significant body weight loss”. For the same molecule, the median survival ([5]; 2 μmol/kg ip 2Q1D5) was 24 days, the “amount of melanin in lung homogenate” value ([5]; 2 μmol/kg ip 2Q1D5, day 14) was 183 mg/mL and the median survival ([5]; 3.5 μmol/kg ip 2Q1D5) was 28 days. The “amount of melanin in lung homogenate” value ([5]; 3.5 μmol/kg ip 2Q1D5, day 14) was 53 mg/mL and the mortality ([6]; 2 μmol/kg ip 2Q1D5, SCID mice) was “all animals died within 10 days”.

For COc1cccc2c1C(=O)c1c(O)c3c(c(O)c1C2=O)CC(O)(C(=O)CO)CC3OC1CC(NC(=O)C2CCCN2C(=O)CNC(=O)C(CC(C)C)NC(=O)C(C)NC(=O)CP(=O)(O)O)C(O)C(C)O1 (centres unmarked) [PhAc-ALGP-Dox, PhAc-ALGP-doxorubicin], the “IC50 on MEF” value ([1]; up to 20 μg/ml) was “no IC50 is reached”, the “TGD” value ([2]; 25 μmol/kg ip 2Q1D5) was 5 days and the “TGI [% (day)]” value ([2]; 25 μmol/kg ip 2Q1D5, day 22) was 32 (22) %. The “TGD” value ([2]; 35 μmol/kg ip 2Q1D5) was 13 days, the “TGI [% (day)]” value ([2]; 35 μmol/kg ip 2Q1D5, day 22) was 60 (22) % and the “TGD” value ([2]; 50 μmol/kg ip 2Q1D5) was 17 days. For the same molecule, the “TGI [% (day)]” value ([2]; 50 μmol/kg ip 2Q1D5, day 22) was 65% and 65 (22) %, the “TGD” value ([3]; 25 μmol/kg ip 2Q1D5×2W) was 9 days and the “TGI [% (day)]” value ([3]; 25 μmol/kg ip 2Q1D5×2W, day 29) was 54(29), %. For the same molecule, the “TGD” value ([3]; 35 μmol/kg ip 2Q1D5×2W) was 9 days, the “TGI [% (day)]” value ([3]; 35 μmol/kg ip 2Q1D5×2W, day 29) was 53(29), % and the “TGD” value ([3]; 50 μmol/kg ip 2Q1D5×2W) was 22 days. The “maximum body weight loss” value ([3]; 50 μmol/kg ip 2Q1D5×2W, day 9) was 13%, the “TGI [% (day)]” value ([3]; 50 μmol/kg ip 2Q1D5×2W, day 29) was 73% and 73(29), % and the “TGI [% (day)]” value ([4]; 50 μmol/kg ip 2Q1D5×2W) was 76% and 76 (35), n = 4%. For the same molecule, the “body weight loss (in words)” value [4] was “No significant body weight loss”, the median survival ([5]; 50 μmol/kg ip 2Q1D5) was 36 days and the “amount of melanin in lung homogenate” value ([5]; 50 μmol/kg ip 2Q1D5, day 14) was 16 mg/mL. The “number of hepatic metastases” value ([6]; 30 μmol/kg, day 34) was 24, the primary tumor weight ([6]; 30 μmol/kg, day 34) was 0.69 g and the “mice surviving 34 days” value ([6]; 35 μmol/kg ip 2Q1D5, groups of 16) was 12 mice. The “mice surviving 34 days” value ([6]; 50 μmol/kg ip 2Q1D5, groups of 16) was 9 mice, the “mean number of hepatic metastases” value ([6]; 50 μmol/kg, day 34) was 1.78 and the primary tumor weight ([6]; 50 μmol/kg, day 34) was 0.44 g.
